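Five concentrations, 48 hours, 96-well plates. GI50 marks 50% less growth. TGI is the concentration that stops growth completely.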
How the values were obtained:
Assay in all cases: growth of human tumour cells (NCI), 48 h
[1] = system: CCRF-CEM leukemia
[2] = system: HOP-92 NSCLC
[3] = system: HT29 colon
[4] = system: K-562 leukemia
[5] = system: M14 melanoma
[6] = system: MALME-3M melanoma
[7] = system: SF-539 CNS
[8] = system: SNB-19 CNS
[9] = system: BT-549 breast
[10] = system: MDA-MB-435

Compound | TGI [1] | TGI [2] | TGI [3] | TGI [4] | TGI [5] | TGI [6] | TGI [7] | TGI [8] | TGI [9] | TGI [10] | GI50 [9] | GI50 [1] | GI50 [2] | GI50 [3] | GI50 [4] | GI50 [5] | GI50 [10] | GI50 [7] | GI50 [8] | GI50 [6]
O=C(Nc1ccccc1Br)c1cccc([N+](=O)[O-])c1O | > 40.3 µM | 4.99 µM | > 63.3 µM | > 100 µM | 28.9 µM | 7.38 µM | 35 µM | > 100 µM | – | – | – | – | – | – | – | – | – | – | – | –
Cc1cc(C)cc(Sc2c([N+](=O)[O-])ncn2C)c1 | > 100 µM | 41.7 µM | 38.7 µM | > 100 µM | 27.6 µM | 25.3 µM | 20.9 µM | > 100 µM | – | – | – | – | – | – | – | – | – | – | – | –
Cc1ccccc1N=Nc1c(O)[nH]c2ccccc12 | > 100 µM | – | > 100 µM | > 100 µM | > 100 µM | – | – | > 100 µM | > 100 µM | > 100 µM | – | – | – | – | – | – | – | – | – | –
CCOC(=O)C1=C(C)NC2SC(=O)/C(=C\c3ccccc3)N2C1c1ccccc1 (stereo not given) | > 100 µM | > 100 µM | > 100 µM | > 100 µM | > 100 µM | – | > 100 µM | > 100 µM | > 100 µM | > 100 µM | > 100 µM | 14.8 µM | > 100 µM | > 100 µM | 51.8 µM | > 100 µM | > 100 µM | > 100 µM | > 100 µM | –
O=C1/C(=C\c2coc3ccccc3c2=O)c2ccccc2N1c1c(Cl)cccc1Cl | > 100 µM | – | > 100 µM | > 100 µM | 97.4 µM | 13 µM | > 100 µM | – | 35.3 µM | 9.69 µM | 2.83 µM | 2.08 µM | – | 3.05 µM | 2.08 µM | 5.28 µM | 2.7 µM | 3.06 µM | – | 2.48 µM
CCc1c(Cl)nc(Cl)nc1Cl | – | 3 µM | 1.3 µM | > 32 µM | 0.99 µM | 0.718 µM | 1.77 µM | 8.79 µM | 0.133 µM | 12.1 µM | – | – | – | – | – | – | – | – | – | –
CC1(C)C(=S)C(C)(C)C1=S | – | – | > 100 µM | > 100 µM | > 100 µM | > 100 µM | > 100 µM | > 100 µM | – | > 100 µM | – | – | – | – | – | – | – | – | – | –
CC(C)(C)[Si](C)(C)O/N=C\c1ccc(O[Si](C)(C)C(C)(C)C)cc1 | > 100 µM | – | > 100 µM | > 100 µM | > 100 µM | > 100 µM | > 100 µM | > 100 µM | – | – | – | – | – | – | – | – | – | – | – | –
O=C1C(Cl)=C(Nc2cccc(O)c2)C(=O)N1c1ccc(Cl)c(Cl)c1 | 74.6 µM | 70.6 µM | – | > 100 µM | 37.4 µM | 55 µM | – | > 100 µM | – | 59.6 µM | – | 25.2 µM | 21.8 µM | – | 25.5 µM | 18.9 µM | 21.9 µM | – | 36 µM | 19.7 µM
O=C(NNC(=O)c1ccncc1)c1ccncc1 | > 100 µM | > 100 µM | > 100 µM | > 100 µM | > 100 µM | > 100 µM | – | > 100 µM | > 100 µM | > 100 µM | – | – | – | – | – | – | – | – | – | –
C[C@H]1CC[C@@H]2[C@@H](C)[C@H]3[C@H](C[C@H]4[C@@H]5CC=C6C[C@@H](O)CC[C@]6(C)[C@H]5C[C@H](O)[C@]34C)N2C1 | – | > 100 µM | > 100 µM | > 100 µM | > 100 µM | > 100 µM | > 100 µM | > 100 µM | > 100 µM | > 100 µM | – | – | – | – | – | – | – | – | – | –
CC(C)c1cccc(C(C)C)c1NC(=O)C(=O)C(C(=O)c1ccc2ccccc2c1)C1OC(=O)c2ccccc21 (stereo not given) | > 100 µM | > 100 µM | > 100 µM | > 100 µM | > 100 µM | > 100 µM | > 100 µM | > 100 µM | – | – | – | – | – | – | – | – | – | – | – | –
O=S1(=O)CS(=O)(=O)OCCCO1 | > 100 µM | > 100 µM | > 100 µM | > 100 µM | > 100 µM | > 100 µM | > 100 µM | > 100 µM | – | > 100 µM | – | – | – | – | – | – | – | – | – | –
COC(=O)[C@H](CC(C)C)NC(=O)NC(=O)NC(=O)CI | – | 4.98 µM | 3.59 µM | 4.6 µM | 4.94 µM | 3.43 µM | 12.2 µM | 37.1 µM | 17.7 µM | 19.2 µM | 5.32 µM | – | 2.14 µM | 1.93 µM | 1.91 µM | 2.03 µM | 6.1 µM | 3.16 µM | 18 µM | 1.62 µM
C=C1C(=O)O[C@@H]2C[C@@H]1CC[C@@]1(C)O[C@@H]1CC[C@@]1(C)O[C@@H]1CC[C@@]2(C)O | > 100 µM | – | 63.2 µM | > 100 µM | 42.4 µM | 42.3 µM | 75.9 µM | 66 µM | 59.6 µM | 68.4 µM | 22.1 µM | 28.1 µM | – | 21 µM | > 100 µM | 21.4 µM | 17.4 µM | 26.7 µM | 17.6 µM | 16.2 µM
CN(C)CCN=Cc1c2ccccc2c(=O)n2c1oc1ccccc12 | 62.8 µM | 44.1 µM | 19.4 µM | > 100 µM | 31.2 µM | – | 8.81 µM | 21.4 µM | 21.1 µM | 21.7 µM | 7.61 µM | 4.36 µM | 12.3 µM | 4.56 µM | 11 µM | 15.2 µM | 10.1 µM | 2.96 µM | 7.45 µM | –
Nc1ccccc1NC(=O)c1ccc(CN2CCC/C(=C\c3cccc(Cl)c3)C2=O)cc1 | > 100 µM | 16.2 µM | 1.89 µM | > 100 µM | 13.7 µM | 16.4 µM | 5.33 µM | > 100 µM | 5.52 µM | – | 1.4 µM | 0.866 µM | 1.76 µM | 0.144 µM | 0.0399 µM | 0.0521 µM | – | 0.695 µM | 0.355 µM | 1.59 µM
C/C(=N/NC(=O)C(N)=O)C(CC(C(=O)Nc1ccccc1C)/C(C)=N\NC(=O)C(N)=O)C(=O)Nc1ccccc1C (stereo not given) | > 100 µM | > 100 µM | > 100 µM | > 100 µM | > 100 µM | > 100 µM | > 100 µM | > 100 µM | – | – | – | – | – | – | – | – | – | – | – | –
CCOc1ccc(N=Nc2ccc3oc(=O)c(C(=O)Nc4ccc(OC)cc4)cc3c2)cc1 | 25.4 µM | – | > 100 µM | > 100 µM | – | > 100 µM | 51 µM | 46.6 µM | – | – | – | – | – | – | – | – | – | – | – | –
